{"source": "patent US10059975B2", "about": "“Methods for the isolation and identification of microorganisms” (bioMerieux, Inc., priority 2008, dated 2018)", "type_in_all_cases": "cell-based", "key": {"[1]": {"tested_on": "Streptococcus pneumoniae, strain WM-43", "assay": "Effect of detergent type on Gram reactivity, viability and intrinsic fluorophores", "set-up": "key to Viability of Pellet: NG (no growth); 4+(maximal growth)", "details": "for Gram Stain of Pellet: Bacteria (cocci): detergent in 0.3M CAPS, pH 11.7, 1 min at 37° C.; for Viability of Pellet: 1:100 dilution of resuspended pellet plated on Sheep Blood Agar, scale NG to 4+; for effect on Gram reaction/reactivity of the S. pneumoniae isolate (in words): Table 4", "procedure": "Lysis buffers were prepared containing detergents of differing structure and lytic activity in a base buffer formulation of 0.3M CAPS, pH 11.7. These lysis buffers were functionally assessed using positive blood culture broth containing a clinical microorganism strain known to be sensitive to detergents and alkaline pH conditions, Streptococcus pneumoniae, strain WM-43. Parameters evaluated were microbial intrinsic fluorescence levels (Excitation-Emission Matrix spectra), separation efficiency, appearance of isolated microbial pellet, and Gram stain characteristics and viability of microorganisms recovered from the pellet beneath the density cushion.\nThe procedure was performed as follows:\nMix 2 parts of positive broth with 1 part of test lysis buffer, incubate in a 37° C. water bath for 1 minute to lyse blood cells, then layer 0.5 mL of lysate over 0.2 mL of density cushion (14% w/v Iohexyl+1.93% w/v NaCl+10 mM Hepes, pH 7.4) dispensed into a 2-piece optical separation tube which was then hermetically sealed with a screw-cap. After centrifuging the tube in an Eppendorf 5417R microcentrifuge fitted with a A-8-11 swing out rotor for 2 minutes at 10,000 rpm, the tube was placed into a custom-built adapter which coupled the base of the tube directly to a 400 micron fiber optic probe connected to a spectrofluorimeter (Fluorolog® 3 from Horiba Jobin-Yvon, New Jersey), and a complete EEM scan was taken (Ex 260-850 nm; Em 260-1100 nm; every 5 nm). Following the scan, the supernatant was removed and the microbial pellet resuspended in 0.5 mL of Tryptic Soy Broth (TSB). Smears of the suspensions were prepared for Gram staining and twenty microliters of a 1:100 dilution were plated onto Sheep Blood Agar plates for viability estimation on a scale of NG (no growth) to 4+(maximal growth)."}, "[2]": {"tested_on": "S. pneumoniae strain, WM43", "assay": "Further testing of lysis buffers in combination with density cushions", "details": "irrespective of the makeup of the density cushion"}, "A. actinomycetecomitans": {"tested_on": "A. actinomycetecomitans", "assay": "Viable counts following lysis buffer treatment", "procedure": "(§1) A screening model was developed to enable testing the sensitivity of a larger number of microbial isolates to several detergents. Briefly, suspensions of test fastidious microorganisms were spiked into human blood-containing BacT/ALERT® SA culture media at 10^3-10^5 CFU/mL. Samples were treated with test Lysis Buffers for 1-5 minutes at 37 C, then if required, diluted 1:100 into TSB and plated for viable counts."}, "C. hominis": {"tested_on": "C. hominis", "assay": "Viable counts following lysis buffer treatment", "procedure": "as §1"}, "H. influenzae": {"tested_on": "H. influenzae", "assay": "Viable counts following lysis buffer treatment", "procedure": "as §1"}, "H. parainfluenzae": {"tested_on": "H. parainfluenzae", "assay": "Viable counts following lysis buffer treatment", "procedure": "as §1"}, "N. meningitidis": {"tested_on": "N. meningitidis", "assay": "Viable counts following lysis buffer treatment", "procedure": "as §1"}, "S. pneumoniae WM43": {"tested_on": "S. pneumoniae WM43", "assay": "Viable counts following lysis buffer treatment", "procedure": "as §1"}, "S. pneumoniae WM48": {"tested_on": "S. pneumoniae WM48", "assay": "Viable counts following lysis buffer treatment", "procedure": "as §1"}, "[3]": {"tested_on": "fastidious microorganisms", "assay": "Screening model, summary over the panel", "details": "summary of the colony counts of Table 6", "procedure": "as §1"}, "[4]": {"tested_on": "S. pneumoniae, S. pyogenes, S. agalactiae, S. mitis, P. mirabilis, K. pneumoniae and E. coli", "assay": "Follow up experiment: viability after 5-minute contact time", "details": "data not shown"}}}
{"compound": "CCCCCCCCO[C@@H]1O[C@H](CO)[C@@H](O)[C@H](O)[C@H]1O", "note": "[Detergent 1, n-octyl glucoside, reference compound]", "values": [{"measurement": "Gram Stain of Pellet: Bacteria (cocci)", "setting": "[1]", "value": "No organisms seen"}]}
{"compound": "C[C@H](CCC(=O)NCCC[N+](C)(C)CCCS(=O)(=O)[O-])[C@H]1CC[C@H]2[C@@H]3[C@H](O)C[C@@H]4C[C@H](O)CC[C@]4(C)[C@H]3C[C@H](O)[C@]12C", "note": "[Detergent 2, CHAPS, reference compound]", "values": [{"measurement": "Gram Stain of Pellet: Bacteria (cocci)", "setting": "[1]", "value": "Rare Gram negative"}]}
{"compound": "CCCCCCCCCCCCOCCOCCOCCOCCOCCOCCOCCOCCOCCO", "note": "[Detergent 6, nonaethylene glycol monododecyl ether, reference compound]", "values": [{"measurement": "Viability of Pellet", "setting": "[1]", "value": "4+"}, {"measurement": "effect on Gram reaction/reactivity of the S. pneumoniae isolate (in words)", "setting": "[1]", "value": "relatively minor effect"}, {"measurement": "viability of the recovered S. pneumoniae cells (in words)", "setting": "[2]", "value": "not as high"}]}
{"compound": "Arlasolve 200 [Detergent 11]", "values": [{"measurement": "Gram Stain of Pellet: Bacteria (cocci)", "setting": "[1]", "value": "3+ Gram positive"}]}
{"compound": "Brij ® 96V [Detergent 9]", "values": [{"measurement": "Gram Stain of Pellet: Bacteria (cocci)", "setting": "[1]", "value": "3+ Gram positive"}]}
{"compound": "Brij ® 97 [Detergent 10]", "values": [{"measurement": "Viability of Pellet", "setting": "[1]", "value": "4+"}, {"measurement": "Gram Stain of Pellet: Bacteria (cocci)", "setting": "[1]", "value": "3+ Gram positive"}, {"measurement": "Viable Counts Following Lysis Buffer Treatment", "setting": "A. actinomycetecomitans; 1 min at 37 C", "value": 0}, {"measurement": "Viable Counts Following Lysis Buffer Treatment", "setting": "A. actinomycetecomitans; 5 min at 37 C", "value": 0}, {"measurement": "Viable Counts Following Lysis Buffer Treatment", "setting": "C. hominis; 1 min at 37 C", "value": 74}, {"measurement": "Viable Counts Following Lysis Buffer Treatment", "setting": "C. hominis; 5 min at 37 C", "value": 28}, {"measurement": "Viable Counts Following Lysis Buffer Treatment", "setting": "H. influenzae; 1 min at 37 C", "value": 0}, {"measurement": "Viable Counts Following Lysis Buffer Treatment", "setting": "H. influenzae; 5 min at 37 C", "value": 0}, {"measurement": "Viable Counts Following Lysis Buffer Treatment", "setting": "H. parainfluenzae; 1 min at 37 C", "value": 124}, {"measurement": "Viable Counts Following Lysis Buffer Treatment", "setting": "H. parainfluenzae; 5 min at 37 C", "value": 19}, {"measurement": "Viable Counts Following Lysis Buffer Treatment", "setting": "N. meningitidis; 1 min at 37 C", "value": 0}, {"measurement": "Viable Counts Following Lysis Buffer Treatment", "setting": "N. meningitidis; 5 min at 37 C", "value": 0}, {"measurement": "Viable Counts Following Lysis Buffer Treatment", "setting": "S. pneumoniae WM43; 1 min at 37 C", "value": 18}, {"measurement": "Viable Counts Following Lysis Buffer Treatment", "setting": "S. pneumoniae WM43; 5 min at 37 C", "value": 7}, {"measurement": "Viable Counts Following Lysis Buffer Treatment", "setting": "S. pneumoniae WM48; 1 min at 37 C", "value": 14}, {"measurement": "Viable Counts Following Lysis Buffer Treatment", "setting": "S. pneumoniae WM48; 5 min at 37 C", "value": 11}, {"measurement": "toxicity over the panel (in words)", "setting": "[3]", "value": "minimal toxicity"}, {"measurement": "viability (in words)", "setting": "[4]", "value": "remained unaffected"}]}
{"compound": "Brij ® 98 [Detergent 12]", "values": [{"measurement": "Gram Stain of Pellet: Bacteria (cocci)", "setting": "[1]", "value": "3+ Gram positive"}]}
{"compound": "Genapol ® C-100 [Detergent 7]", "values": [{"measurement": "Gram Stain of Pellet: Bacteria (cocci)", "setting": "[1]", "value": "3+ Gram positive"}, {"measurement": "Viable Counts Following Lysis Buffer Treatment", "setting": "A. actinomycetecomitans; 1 min at 37 C", "value": 0}, {"measurement": "Viable Counts Following Lysis Buffer Treatment", "setting": "A. actinomycetecomitans; 5 min at 37 C", "value": 0}, {"measurement": "Viable Counts Following Lysis Buffer Treatment", "setting": "C. hominis; 1 min at 37 C", "value": 0}, {"measurement": "Viable Counts Following Lysis Buffer Treatment", "setting": "C. hominis; 5 min at 37 C", "value": 0}, {"measurement": "toxicity (in words)", "setting": "C. hominis; compared with Brij® 97", "value": "slightly more toxic"}, {"measurement": "Viable Counts Following Lysis Buffer Treatment", "setting": "H. influenzae; 1 min at 37 C", "value": 0}, {"measurement": "Viable Counts Following Lysis Buffer Treatment", "setting": "H. influenzae; 5 min at 37 C", "value": 0}, {"measurement": "Viable Counts Following Lysis Buffer Treatment", "setting": "H. parainfluenzae; 1 min at 37 C", "value": 0}, {"measurement": "Viable Counts Following Lysis Buffer Treatment", "setting": "H. parainfluenzae; 5 min at 37 C", "value": 0}, {"measurement": "toxicity (in words)", "setting": "H. parainfluenzae; compared with Brij® 97", "value": "slightly more toxic"}, {"measurement": "Viable Counts Following Lysis Buffer Treatment", "setting": "N. meningitidis; 1 min at 37 C", "value": 0}, {"measurement": "Viable Counts Following Lysis Buffer Treatment", "setting": "N. meningitidis; 5 min at 37 C", "value": 0}, {"measurement": "Viable Counts Following Lysis Buffer Treatment", "setting": "S. pneumoniae WM43; 1 min at 37 C", "value": 30}, {"measurement": "Viable Counts Following Lysis Buffer Treatment", "setting": "S. pneumoniae WM43; 5 min at 37 C", "value": 19}, {"measurement": "Viable Counts Following Lysis Buffer Treatment", "setting": "S. pneumoniae WM48; 1 min at 37 C", "value": 17}, {"measurement": "Viable Counts Following Lysis Buffer Treatment", "setting": "S. pneumoniae WM48; 5 min at 37 C", "value": 12}, {"measurement": "viability (in words)", "setting": "[4]", "value": "remained unaffected"}]}
{"compound": "Genapol ® X-080 [Detergent 5]", "values": [{"measurement": "effect on Gram reaction/reactivity of the S. pneumoniae isolate (in words)", "setting": "[1]", "value": "relatively minor effect"}]}
{"compound": "Genapol ® X-100 [Detergent 8]", "values": [{"measurement": "Viability of Pellet", "setting": "[1]", "value": "4+"}, {"measurement": "Gram Stain of Pellet: Bacteria (cocci)", "setting": "[1]", "value": "3+ Gram positive"}]}
{"compound": "Triton ® X100-R [Detergent 3]", "values": [{"measurement": "Gram Stain of Pellet: Bacteria (cocci)", "setting": "[1]", "value": "2+ Gram negative"}, {"measurement": "viability of the recovered S. pneumoniae cells (in words)", "setting": "[2]", "value": "not as high"}]}
